# Assay: Media pH during Loblolly pine embryogenic culture growth
# Assay type: physicochemical
# Protocol: The pH of media containing four different concentrations of MES was compared to that of a non-buffered control media during eight weeks of embryogenic culture growth. Maintenance cultures were established on treatment media using single isolated somatic embryos. Maintenance cultures were prepared and cultured essentially as described in Example 5.
# The control media was #1043. (See Table 21). The treatment media consisted of #1043 supplemented with 250, 500, 1000 and 1500 mg/l MES. Media pH was adjusted to 5.7 within all treatments prior to autoclaving, pouring and solidification. Immediately after pouring the media, and thereafter at two week intervals, media pH was measured up to the eighth week of culture growth. At each sampling time, four cultures from each media-genotype treatment were destructively sampled to measure the pH of the media directly underlying the growing embryogenic tissue.
compound,measurement,setting,value
"O=S(=O)(O)CCN1CCOCC1 [MES, 2-(N-morpholino)-ethanesulfonic acid]",Media pH,"250 mg/l in media #1043, 0 weeks",5.55
same,Media pH,"250 mg/l in media #1043, 2 weeks",5.43
same,Media pH,"250 mg/l in media #1043, 4 weeks",4.69
same,Media pH,"250 mg/l in media #1043, 6 weeks",4.68
same,Media pH,"250 mg/l in media #1043, 8 weeks",4.72
same,Media pH,"500 mg/l in media #1043, 0 weeks",5.63
same,Media pH,"500 mg/l in media #1043, 2 weeks",5.50
same,Media pH,"500 mg/l in media #1043, 4 weeks",4.78
same,Media pH,"500 mg/l in media #1043, 6 weeks",4.77
same,Media pH,"500 mg/l in media #1043, 8 weeks",4.54
same,Media pH,"1000 mg/l in media #1043, 0 weeks",5.67
same,Media pH,"1000 mg/l in media #1043, 2 weeks",5.57
same,Media pH,"1000 mg/l in media #1043, 4 weeks",5.38
same,Media pH,"1000 mg/l in media #1043, 6 weeks",4.70
same,Media pH,"1000 mg/l in media #1043, 8 weeks",4.89
same,Media pH,"1500 mg/l in media #1043, 0 weeks",5.67
same,Media pH,"1500 mg/l in media #1043, 2 weeks",5.59
same,Media pH,"1500 mg/l in media #1043, 4 weeks",5.59
same,Media pH,"1500 mg/l in media #1043, 6 weeks",4.91
same,Media pH,"1500 mg/l in media #1043, 8 weeks",5.18

# — US20060051868A1, “Methods for increasing conifer somatic embryo initiation, capture, and multiplication” (priority 2001, published 2006)
